From patent US5571825A, “Method of selectively inhibiting prostaglandin G/H synthase-2” (Warner-Lambert Company, priority 1995, dated 1996)
“And” between values parts separate entries of the source, which are not always exact repeats. Identical values can stand only once. Like-named read-outs stand apart in the source and are kept apart here.

Tests used:
[1] = molecular target: T1, prostaglandin G/H synthase-2 (Ovis aries, UniProt P79208); experiment: Inhibition of prostaglandin G/H synthase-2 (conversion of [14C]arachidonic acid to products); format: biochemical; conditions: enzyme purified from sheep placenta, 15 min preincubation, pH 7.4, room temperature
T1 construct: purified from sheep placenta; from tissue; host or cells: sheep placenta
Description: (§1) The compounds of the present invention were evaluated as selective inhibitors of prostaglandin G/H synthase-2 by determining the effect of the compounds on the conversion of [^14 C]arachidonic acid to products by prostaglandin G/H synthase-2 purified from sheep placenta. This enzyme shares immunoreactivity and sequence homology with human prostaglandin G/H synthase-2. The effects of the compounds on prostaglandin G/H synthase-1 purified from ram seminal vesicles is used for the evaluation of inhibitory selectivity.
(§2) Each compound was preincubated for 15 minutes at room temperature in 50 mM sodium phosphate buffer at pH 7.4 containing 3.33 mM reduced glutathione, 2.67 mM epinephrine and 6.6% dimethylsulfoxide with sufficient enzyme to cause approximately 30% conversion of substrate to products after 15 minutes incubation in the absence of inhibitory compounds. Reactions with 24 μM arachidonic acid are initiated by the addition of a one third volume of 50 mM sodium phosphate buffer, pH 7.4, containing 3.33 mM reduced glutathione, 2.67 mM epinephrineβ and [^14 C] arachidonic acid.
(§3) Reactions were terminated after 15 minutes incubation at room temperature by the addition of 1.875 volumes of methanol:acetic acid (100:0.1) containing 0.5 mg/ml triphenylphosphine. The reaction products were separated from the unconverted substrate by high performance liquid chromatography and quantified by on-line radiometric detection. Compound effects were computed as percent inhibition of blank-adjusted mean product formation in uninhibited incubations.

[2] = molecular target: T2, prostaglandin G/H synthase-1 (Ovis aries, UniProt P05979); experiment: Inhibition of prostaglandin G/H synthase-1 (conversion of [14C]arachidonic acid to products); format: biochemical; conditions: enzyme purified from ram seminal vesicles, 15 min preincubation, pH 7.4, room temperature
T2 construct: purified from ram seminal vesicles; from tissue; host or cells: ram seminal vesicles
T2 sequence (P05979 25-600): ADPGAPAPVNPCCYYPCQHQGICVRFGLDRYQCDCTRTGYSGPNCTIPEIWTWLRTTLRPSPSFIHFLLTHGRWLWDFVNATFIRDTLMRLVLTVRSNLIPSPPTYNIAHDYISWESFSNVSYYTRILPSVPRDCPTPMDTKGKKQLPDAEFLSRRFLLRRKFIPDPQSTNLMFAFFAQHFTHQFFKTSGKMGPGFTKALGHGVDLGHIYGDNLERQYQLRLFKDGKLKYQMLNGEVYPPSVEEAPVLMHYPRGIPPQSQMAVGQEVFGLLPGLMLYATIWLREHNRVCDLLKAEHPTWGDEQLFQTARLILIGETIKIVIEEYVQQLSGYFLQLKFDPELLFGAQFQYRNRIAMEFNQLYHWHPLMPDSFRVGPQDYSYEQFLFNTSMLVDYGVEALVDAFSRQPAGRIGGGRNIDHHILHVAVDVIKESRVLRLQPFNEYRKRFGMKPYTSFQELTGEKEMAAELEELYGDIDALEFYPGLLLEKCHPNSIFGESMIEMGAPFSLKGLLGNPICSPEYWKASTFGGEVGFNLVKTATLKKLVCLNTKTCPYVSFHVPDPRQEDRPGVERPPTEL
Description: as §1, §2, §3

[3] = pH 7.4, 10 μM, read-out: % Inhibition of PGHS-2 at 10 μM
[4] = pH 7.4, 100 μM, read-out: % Inhibition of PGHS-2 at 100 μM
[5] = pH 7.4, 10 μM, read-out: % Inhibition of PGHS-1 at 10 μM
[6] = pH 7.4, 100 μM, read-out: % Inhibition of PGHS-1 at 100 μM
[7] = pH 7.4, read-out: % Inhibition of PGHS-2 at 10 μM, 10 μM
[8] = pH 7.4, read-out: % Inhibition of PGHS-2 at 100 μM, 100 μM
[9] = pH 7.4, read-out: % Inhibition of PGHS-1 at 10 μM, 10 μM
[10] = pH 7.4, read-out: % Inhibition of PGHS-1 at 100 μM, 100 μM

T1 sequence (P79208 17-603): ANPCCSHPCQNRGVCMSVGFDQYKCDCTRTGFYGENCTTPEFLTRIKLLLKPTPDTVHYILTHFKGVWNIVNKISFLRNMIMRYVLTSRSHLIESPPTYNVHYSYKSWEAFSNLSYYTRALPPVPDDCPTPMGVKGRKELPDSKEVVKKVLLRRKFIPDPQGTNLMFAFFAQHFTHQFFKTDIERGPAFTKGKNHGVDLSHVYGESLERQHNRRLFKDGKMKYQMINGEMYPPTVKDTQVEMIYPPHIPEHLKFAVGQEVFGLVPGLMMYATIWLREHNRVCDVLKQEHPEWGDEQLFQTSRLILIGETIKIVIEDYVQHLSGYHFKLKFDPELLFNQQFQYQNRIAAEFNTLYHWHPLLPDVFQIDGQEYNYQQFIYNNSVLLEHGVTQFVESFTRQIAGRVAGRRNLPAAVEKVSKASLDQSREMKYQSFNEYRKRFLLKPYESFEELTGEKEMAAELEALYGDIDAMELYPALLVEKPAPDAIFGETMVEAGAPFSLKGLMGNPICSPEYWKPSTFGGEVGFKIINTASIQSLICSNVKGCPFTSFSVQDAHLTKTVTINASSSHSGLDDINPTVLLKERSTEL

Q: With COC(=O)CSC(c1cccs1)c1cccs1 [Example 9, Methyl [[bis-(2-thienyl)methyl]thio]acetate] as the compound, how does the inhibition at 10 µM [1, 3] read?
A: < 10%

Q: What about the inhibition at 100 µM [1, 4] of the same compound?
A: 33%

Q: And the inhibition at 10 µM [2, 5]?
A: < 10%

Q: And the inhibition at 100 µM [2, 6]?
A: < 10%

Q: For COC(=O)CSC1c2ccccc2CCc2ccccc21 [Example 17, Methyl (10, 11-dihydro-5H-dibenzo[a,d]cyclohepten-5-yl-thio)acetate], which inhibition at 10 µM [1, 3] is on record?
A: 8%

Q: And the inhibition at 100 µM [1, 4]?
A: 17%

Q: What about the inhibition at 10 µM [2, 5] of the same compound?
A: < 10%

Q: What about the inhibition at 100 µM [2, 6] of the same compound?
A: < 10%

Q: What does the source list for COC(=O)CSC(c1ccccc1)c1ccccc1 [Example 1, Methyl [(diphenylmethyl)thio]acetate]?
A: inhibition at 10 µM [1, 7]: 56%; inhibition at 100 µM [1, 8]: 84%; inhibition at 10 µM [2, 9]: 20%; inhibition at 100 µM [2, 10]: 42%

Q: Which results are given for COC(=O)CSC(c1ccccc1)(c1ccccc1)c1ccccc1 [Example 11, Methyl [(triphenylmethyl)thio]acetate]?
A: inhibition at 10 µM [1, 3]: 29%; inhibition at 100 µM [1, 4]: 62%; inhibition at 10 µM [2, 5]: < 10%; inhibition at 100 µM [2, 6]: 10%

Q: Which results are given for COC(=O)CSC1c2ccccc2Oc2ccccc21 [Example 16, Methyl (xanthen-9-yl-thio)acetate]?
A: % Inhibition of PGHS-2 at 10 μM [1]: 50%; % Inhibition of PGHS-2 at 100 μM [1]: 85%; inhibition at 10 µM [1, 3]: 41%; inhibition at 100 µM [1, 4]: 78%; inhibition at 10 µM [2, 5]: < 10%

Q: What does the source list for COC(=O)CSC(c1ccc(Cl)cc1)c1ccc(Cl)cc1 [Example 3, Methyl [[bis-(4-chlorophenyl)methyl]thio]acetate]?
A: % Inhibition of PGHS-2 at 100 μM [1]: 46%; inhibition at 100 µM [1, 8]: 45%

Q: COC(=O)CSC1c2ccccc2-c2ccccc21 [Example 10, Methyl (9-fluorenylthio)acetate] was tested. Which inhibition at 10 µM [1, 3] did it give?
A: 30%

Q: And the inhibition at 100 µM [1, 4]?
A: 77%

Q: And the inhibition at 10 µM [2, 5]?
A: < 10%

Q: And the inhibition at 100 µM [2, 6]?
A: 18%

Q: Which inhibition at 10 µM [1, 7] does the source give for COC(=O)CSC(c1ccc(C)cc1)c1ccc(C)cc1 [Example 6, Methyl [[bis-(4-methylphenyl)methyl]thio]acetate] here?
A: 11%

Q: And the inhibition at 100 µM [1, 8]?
A: 52%

Q: And the inhibition at 10 µM [2, 9]?
A: < 10%

Q: What about the inhibition at 100 µM [2, 10] of the same compound?
A: < 10%

Q: What does the source list for COC(=O)CSC1c2ccccc2C=Cc2ccccc21 [Example 15, Methyl (5H-dibenzo[a,d]cyclohepten-5-yl-thio)acetate]?
A: inhibition at 10 µM [1, 3]: < 10%; inhibition at 100 µM [1, 4]: 31%; inhibition at 10 µM [2, 5]: < 10%; inhibition at 100 µM [2, 6]: < 10%

Q: Which “% Inhibition of PGHS-2 at 10 μM” value [1] does the source give for COC(=O)CSC(c1ccc(N(C)C)cc1)c1ccc(N(C)C)cc1 [Example 4, Methyl [[bis-(4-dimethylaminophenyl)methyl]thio]acetate] here?
A: 92%

Q: What about the “% Inhibition of PGHS-2 at 100 μM” value [1] of the same compound?
A: 99% and 92%

Q: And the inhibition at 10 µM [1, 3]?
A: 86%

Q: And the inhibition at 100 µM [1, 4]?
A: 96%

Q: What about the “% Inhibition of PGHS-1 at 10 μM” value ([2]; 10 μM) of the same compound?
A: 31%

Q: And the “% Inhibition of PGHS-1 at 100 μM” value [2]?
A: 72%

Q: What about the inhibition at 10 µM [2, 5] of the same compound?
A: 42%

Q: What about the inhibition at 100 µM [2, 6] of the same compound?
A: 68%

Q: How did the inhibition at 10 µM [1, 7] turn out when COC(=O)CSC(c1ccccc1Cl)c1ccccc1Cl [Example 7, Methyl [[bis-(2-chlorophenyl)methyl]thio]acetate] was run?
A: < 10%

Q: What about the inhibition at 100 µM [1, 8] of the same compound?
A: 37%

Q: What about the inhibition at 10 µM [2, 9] of the same compound?
A: < 10%

Q: What about the inhibition at 100 µM [2, 10] of the same compound?
A: < 10%

Q: Which results are given for COC(=O)CSC(c1ccc(OC)cc1)c1ccc(OC)cc1 [Example 2, Methyl [[bis-(4-methoxyphenyl)methyl]thio]acetate]?
A: % Inhibition of PGHS-2 at 10 μM [1]: 34%; % Inhibition of PGHS-2 at 100 μM [1]: 74%; inhibition at 10 µM [1, 7]: 23%; inhibition at 100 µM [1, 8]: 79%; % Inhibition of PGHS-1 at 100 μM [2]: 13%; inhibition at 10 µM [2, 9]: < 10%; inhibition at 100 µM [2, 10]: < 10%

Q: How did the “% Inhibition of PGHS-2 at 10 μM” value [1] turn out when COC(=O)CSC(c1ccc(OC)cc1)(c1ccc(OC)cc1)c1ccc(OC)cc1 [Example 12, Methyl [[(tris-4-methoxyphenyl)methyl]thio]acetate] was run?
A: 83%

Q: And the “% Inhibition of PGHS-2 at 100 μM” value [1]?
A: 86%

Q: What about the inhibition at 10 µM [1, 3] of the same compound?
A: 79%

Q: What about the inhibition at 100 µM [1, 4] of the same compound?
A: 80%

Q: What about the “% Inhibition of PGHS-1 at 100 μM” value [2] of the same compound?
A: 17%

Q: What about the inhibition at 100 µM [2, 6] of the same compound?
A: 32%

Q: Which “% Inhibition of PGHS-2 at 100 μM” value [1] does the source give for COC(=O)CSC(c1ccc(F)cc1)c1ccc(F)cc1 [Example 5, Methyl [[bis-(4-fluorophenyl)methyl]thio]acetate] here?
A: 40%

Q: What about the inhibition at 100 µM [1, 8] of the same compound?
A: 52%

Q: What about the inhibition at 10 µM [2, 9] of the same compound?
A: < 10%

Q: What about the inhibition at 100 µM [2, 10] of the same compound?
A: < 10%

Q: What does the source list for COC(=O)CSC(c1ccccc1)(c1ccc(OC)cc1)c1ccc(OC)cc1 [Example 13, Methyl [[(bis-4-methoxyphenyl)phenylmethyl]thio]acetate]?
A: inhibition at 10 µM [1, 3]: 41%; inhibition at 100 µM [1, 4]: 49%; inhibition at 10 µM [2, 5]: < 10%; inhibition at 100 µM [2, 6]: < 10%

Q: For COC(=O)CSC(c1ccccc1OC)c1ccccc1OC [Example 8, Methyl [[bis-(2-methoxyphenyl)methyl]thio]acetate], which inhibition at 10 µM [1, 7] is on record?
A: 14%

Q: What about the inhibition at 100 µM [1, 8] of the same compound?
A: 77%

Q: COC(=O)CSC1(c2ccccc2)c2ccccc2-c2ccccc21 [Example 14, Methyl (9-phenylfluoren-9-yl-thio)acetate] was tested. Which inhibition at 10 µM [1, 3] did it give?
A: 14%

Q: What about the inhibition at 100 µM [1, 4] of the same compound?
A: 50%

Q: And the inhibition at 10 µM [2, 5]?
A: < 10%

Q: And the inhibition at 100 µM [2, 6]?
A: < 10%
